Data: ChEMBL document CHEMBL5241122, “A concise review on marine bromopyrrole alkaloids as anticancer agents” (Bioorg Med Chem Lett, 2023)
Where a SMILES comes first, the peptide text is derived from it. [ ]: non-standard residue; d: D form. The star is where a group is joined. X1 = Cn1c(Br)c(Br)c(Br)c1C(=O)*; NMeL = CN[C@@H](CC(C)C)C(=O)O

Tests used:
HT-29 = test: Cytotoxicity against human HT-29 cells assessed as cell growth inhibition by cell based assay; type: functional
A549 [1] = test: Cytotoxicity against human A549 cells assessed as cell growth inhibition by cell based assay; type: functional
PSN1 = test: Cytotoxicity against human PSN1 cells assessed as cell growth inhibition by cell based assay; type: functional
MDA-MB-231 [2] = test: Cytotoxicity against human MDA-MB-231 cells assessed as cell growth inhibition by cell based assay; type: functional
MCF7 [3] = test: Cytotoxicity against human MCF7 cells by MTT assay; type: functional, cell-based
Caco-2 = test: Cytotoxicity against human Caco-2 cells by MTT assay; type: functional, cell-based
WRL68 = test: Cytotoxicity against human WRL68 cells by MTT assay; type: functional, cell-based
P388 = test: Cytotoxicity against mouse P388 cells; type: functional, cell-based
[4] = biological target: Receptor tyrosine-protein kinase erbB-2 (Homo sapiens, UniProt P04626); test: Inhibition of c-ErbB-2 (unknown origin)
Receptor tyrosine-protein kinase erbB-2, sequence (P04626 whole entry): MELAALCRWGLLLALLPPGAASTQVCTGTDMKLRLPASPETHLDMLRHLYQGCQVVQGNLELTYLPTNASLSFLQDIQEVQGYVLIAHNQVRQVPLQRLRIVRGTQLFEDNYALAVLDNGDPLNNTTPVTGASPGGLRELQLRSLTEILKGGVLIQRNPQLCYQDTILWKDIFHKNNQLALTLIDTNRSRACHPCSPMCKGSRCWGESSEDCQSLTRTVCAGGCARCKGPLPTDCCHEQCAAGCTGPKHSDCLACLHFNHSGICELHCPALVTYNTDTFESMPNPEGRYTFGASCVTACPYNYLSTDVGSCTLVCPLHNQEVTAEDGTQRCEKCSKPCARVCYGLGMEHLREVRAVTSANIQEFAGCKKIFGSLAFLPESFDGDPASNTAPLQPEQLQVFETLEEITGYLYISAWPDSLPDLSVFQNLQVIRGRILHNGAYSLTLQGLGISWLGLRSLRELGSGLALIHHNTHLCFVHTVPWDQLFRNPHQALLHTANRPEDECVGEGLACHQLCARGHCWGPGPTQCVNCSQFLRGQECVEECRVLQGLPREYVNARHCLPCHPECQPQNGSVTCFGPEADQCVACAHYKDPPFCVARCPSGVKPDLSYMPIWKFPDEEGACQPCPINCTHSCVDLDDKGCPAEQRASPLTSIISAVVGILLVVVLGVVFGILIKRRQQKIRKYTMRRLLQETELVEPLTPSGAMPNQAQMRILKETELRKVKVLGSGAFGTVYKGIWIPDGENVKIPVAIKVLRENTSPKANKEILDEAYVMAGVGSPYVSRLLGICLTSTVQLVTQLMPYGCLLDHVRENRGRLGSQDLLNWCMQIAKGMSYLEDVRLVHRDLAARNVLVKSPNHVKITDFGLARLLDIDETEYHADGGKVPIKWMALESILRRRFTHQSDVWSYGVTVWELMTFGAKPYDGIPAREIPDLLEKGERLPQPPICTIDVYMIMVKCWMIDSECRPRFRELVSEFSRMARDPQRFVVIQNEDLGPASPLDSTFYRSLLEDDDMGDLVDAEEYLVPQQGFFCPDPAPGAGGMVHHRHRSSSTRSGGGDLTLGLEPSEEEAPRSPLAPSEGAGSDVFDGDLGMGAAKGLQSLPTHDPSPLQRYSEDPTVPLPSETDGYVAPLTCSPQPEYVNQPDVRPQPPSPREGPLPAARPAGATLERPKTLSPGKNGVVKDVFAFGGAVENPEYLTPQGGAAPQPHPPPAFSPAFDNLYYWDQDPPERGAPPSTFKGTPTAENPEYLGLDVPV

KB = test: Cytotoxicity against human KB cells; type: functional, cell-based
L1210 = test: Cytotoxicity against mouse L1210 cells; type: functional, cell-based
[5] = biological target: Cyclin-dependent kinase 4 (Homo sapiens, UniProt P11802); test: Inhibition of CDK4 (unknown origin)
Cyclin-dependent kinase 4, sequence (P11802 whole entry): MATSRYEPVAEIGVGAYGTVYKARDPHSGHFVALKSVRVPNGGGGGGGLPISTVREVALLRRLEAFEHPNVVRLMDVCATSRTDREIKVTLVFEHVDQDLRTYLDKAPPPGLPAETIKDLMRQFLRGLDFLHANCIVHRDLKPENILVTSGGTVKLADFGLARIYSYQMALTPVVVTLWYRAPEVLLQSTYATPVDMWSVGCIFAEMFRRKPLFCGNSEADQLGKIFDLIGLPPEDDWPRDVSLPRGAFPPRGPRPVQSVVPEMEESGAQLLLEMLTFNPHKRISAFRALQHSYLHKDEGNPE

K562 [6] = test: Cytotoxicity against human K562 cells; type: functional, cell-based
[7] = Inhibition of recombinant human MAPK expressed in Escherichia coli assessed as reduction in MEK-1 phosphorylation incubated for 60 mins by ELISA assay
LoVo [8] = test: Inhibition of cell growth in human LoVo cells by SRB assay; type: functional, cell-based
[9] = biological target: Epidermal growth factor receptor (Homo sapiens, UniProt P00533); test: Inhibition of EGFR (unknown origin)
Epidermal growth factor receptor, sequence (P00533 whole entry): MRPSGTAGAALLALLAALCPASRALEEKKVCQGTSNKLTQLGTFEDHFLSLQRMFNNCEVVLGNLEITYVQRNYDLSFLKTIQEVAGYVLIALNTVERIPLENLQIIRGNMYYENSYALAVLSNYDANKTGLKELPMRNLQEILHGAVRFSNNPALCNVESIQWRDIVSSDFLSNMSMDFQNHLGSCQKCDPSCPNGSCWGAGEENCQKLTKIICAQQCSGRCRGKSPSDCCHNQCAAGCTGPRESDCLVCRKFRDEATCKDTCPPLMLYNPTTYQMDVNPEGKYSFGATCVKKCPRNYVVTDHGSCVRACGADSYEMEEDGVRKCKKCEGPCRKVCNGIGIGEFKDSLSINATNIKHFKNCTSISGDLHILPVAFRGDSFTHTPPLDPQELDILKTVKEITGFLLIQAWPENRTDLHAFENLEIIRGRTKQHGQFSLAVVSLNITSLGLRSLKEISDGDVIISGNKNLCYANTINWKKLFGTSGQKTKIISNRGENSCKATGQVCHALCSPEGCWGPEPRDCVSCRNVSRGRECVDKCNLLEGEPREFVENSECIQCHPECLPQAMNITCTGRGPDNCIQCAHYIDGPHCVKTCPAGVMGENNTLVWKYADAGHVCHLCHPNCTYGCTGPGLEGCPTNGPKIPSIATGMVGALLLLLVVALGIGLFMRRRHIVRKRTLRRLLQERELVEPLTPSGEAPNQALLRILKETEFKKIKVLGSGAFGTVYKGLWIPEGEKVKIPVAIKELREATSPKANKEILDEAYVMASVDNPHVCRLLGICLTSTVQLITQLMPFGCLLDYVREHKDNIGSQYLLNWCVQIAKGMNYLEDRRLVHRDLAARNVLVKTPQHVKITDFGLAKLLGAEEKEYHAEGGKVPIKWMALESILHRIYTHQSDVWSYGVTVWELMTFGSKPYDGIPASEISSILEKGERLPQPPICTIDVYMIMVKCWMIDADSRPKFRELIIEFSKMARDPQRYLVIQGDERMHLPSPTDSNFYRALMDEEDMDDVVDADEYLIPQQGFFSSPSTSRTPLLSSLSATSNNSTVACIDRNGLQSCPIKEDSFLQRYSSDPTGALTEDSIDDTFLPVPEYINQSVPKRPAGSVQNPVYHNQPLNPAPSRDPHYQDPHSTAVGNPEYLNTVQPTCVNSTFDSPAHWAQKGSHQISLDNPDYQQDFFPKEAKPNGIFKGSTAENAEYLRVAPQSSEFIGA

[10] = Displacement of [125I]-somatostatin from somatostatin (unknown origin) incubated for 60 mins by gamma scintillation counter analysis; parameters: species or system Homo sapiens
VIP peptides = VIP peptides (Homo sapiens, UniProt P01282); test: Displacement of [125I]-VIP from Vasoactive intestinal peptide (unknown origin) incubated for 120 mins by gamma scintillation counter analysis
VIP peptides, sequence (P01282 125-152 limits assumed): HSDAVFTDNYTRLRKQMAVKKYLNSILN

Jurkat = test: Antiinflammatory activity in PMA induced human Jurkat cells assessed as inhibition of IL-2 production by EIA assay; type: functional, cell-based
MONO-MAC-6 = test: Cytotoxicity against human MONO-MAC-6 cells incubated for 48 hrs by [3H]-thymidine incorporation based liquid scintillation counter analysis; type: functional, cell-based
[11] = biological target: E3 ubiquitin-protein ligase CBL-B (Homo sapiens, UniProt Q13191); test: Inhibition of Cbl-b (unknown origin) assessed as inhibition of Cbl-b dependent ubiquitination in presence of ATP measured after 13 hrs by fluorescence microplate reader assay
E3 ubiquitin-protein ligase CBL-B, sequence (Q13191 whole entry): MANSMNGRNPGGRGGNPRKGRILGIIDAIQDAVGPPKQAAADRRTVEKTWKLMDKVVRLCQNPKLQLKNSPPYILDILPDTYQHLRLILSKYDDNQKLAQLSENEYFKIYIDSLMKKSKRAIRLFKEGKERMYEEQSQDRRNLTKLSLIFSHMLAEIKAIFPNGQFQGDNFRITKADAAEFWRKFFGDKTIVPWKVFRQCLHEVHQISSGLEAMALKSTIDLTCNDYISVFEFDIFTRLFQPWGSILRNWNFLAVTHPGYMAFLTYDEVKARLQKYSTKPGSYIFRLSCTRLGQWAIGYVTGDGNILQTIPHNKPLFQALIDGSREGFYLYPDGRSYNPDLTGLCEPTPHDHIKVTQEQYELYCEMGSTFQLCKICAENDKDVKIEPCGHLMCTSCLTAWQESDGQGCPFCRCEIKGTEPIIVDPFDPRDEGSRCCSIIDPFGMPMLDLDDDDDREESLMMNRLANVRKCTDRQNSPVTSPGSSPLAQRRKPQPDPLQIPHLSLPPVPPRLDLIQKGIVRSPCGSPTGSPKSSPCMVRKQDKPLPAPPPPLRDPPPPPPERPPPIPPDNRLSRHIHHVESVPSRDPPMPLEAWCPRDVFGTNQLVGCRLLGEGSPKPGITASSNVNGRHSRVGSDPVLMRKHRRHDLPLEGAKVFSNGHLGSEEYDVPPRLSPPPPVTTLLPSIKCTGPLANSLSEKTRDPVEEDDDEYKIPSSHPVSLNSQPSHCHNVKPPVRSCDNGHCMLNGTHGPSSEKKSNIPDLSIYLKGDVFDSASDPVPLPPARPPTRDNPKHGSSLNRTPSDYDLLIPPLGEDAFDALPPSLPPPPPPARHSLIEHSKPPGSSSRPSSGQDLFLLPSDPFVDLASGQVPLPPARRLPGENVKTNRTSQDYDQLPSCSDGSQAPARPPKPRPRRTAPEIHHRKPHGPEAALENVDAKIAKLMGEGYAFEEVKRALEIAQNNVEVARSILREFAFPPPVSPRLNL

K562 [12] = test: Cytotoxicity against human K562 cells by MTT assay; type: functional, cell-based
L02 = test: Cytotoxicity against human L02 cells by MTT assay; type: functional, cell-based
HepG2 = test: Cytotoxicity against human HepG2 cells incubated for 72 hrs by MTT assay; type: functional, cell-based; details: HepG2, 72 h
MCF7 [13] = test: Cytotoxicity against human MCF7 cells incubated for 72 hrs by MTT assay; type: functional, cell-based; details: MCF7, 72 h
Bel-7402 = test: Cytotoxicity against human Bel-7402 cells incubated for 72 hrs by MTT assay; type: functional, cell-based; details: Bel-7402, 72 h
LoVo [14] = test: Cytotoxicity against human LoVo cells incubated for 72 hrs by MTT assay; type: functional, cell-based
CNE = test: Cytotoxicity against human CNE cells incubated for 72 hrs by MTT assay; type: functional, cell-based
HeLa = test: Cytotoxicity against human HeLa cells incubated for 72 hrs by MTT assay; type: functional, cell-based
A549 [15] = test: Antiproliferative activity against human A549 cells incubated for 72 hrs by SRB assay; type: functional, cell-based; details: A549, 72 h
SNU-638 = test: Antiproliferative activity against human SNU-638 cells incubated for 72 hrs by SRB assay; type: functional, cell-based; details: SNU-638, 72 h
K562 [16] = test: Antiproliferative activity against human K562 cells incubated for 72 hrs by SRB assay; type: functional, cell-based; details: K562, 72 h
SK-HEP1 = test: Antiproliferative activity against human SK-HEP1 cells incubated for 72 hrs by SRB assay; type: functional, cell-based; details: SK-HEP1, 72 h
HCT-116 = test: Antiproliferative activity against human HCT-116 cells incubated for 72 hrs by SRB assay; type: functional, cell-based; details: HCT-116, 72 h
MDA-MB-231 [17] = test: Antiproliferative activity against human MDA-MB-231 cells incubated for 72 hrs by SRB assay; type: functional, cell-based; details: MDA-MB-231, 72 h

CC[C@H](C)[C@H](NC(=O)c1c(Br)c(Br)c(Br)n1C)C(=O)N(C)[C@@H](CC(C)C)C(=O)N1CCC[C@H]1C(=O)N[C@@H](CCC(N)=O)C(=O)O (X1-I[NMeL]PQ-OH) showed a GI50 (HT-29) greater than 12 µM, a GI50 (A549 [1]) greater than 12 µM and a GI50 (PSN1) greater than 12 µM. It also gave a GI50 (MDA-MB-231 [2]) greater than 12 µM.
Cc1ccccc1NC(=S)NNC(=O)c1cc(Br)c(Br)n1C gave an IC50 (MCF7 [3]) of 70 nM, an IC50 (Caco-2) of 70 nM and an IC50 (WRL68) of 70 nM.
Compound O=C(NNC(=S)Nc1ccc([N+](=O)[O-])cc1)c1cc(Br)c(Br)[nH]1 has an IC50 (MCF7 [3]) of 30 nM, an IC50 (Caco-2) of 30 nM and an IC50 (WRL68) of 30 nM.
Compound NC1=N[C@@]23CCCN2C(=O)c2c([nH]c(Br)c2Br)[C@H]3N1 has an IC50 (P388) of 20.3 µM.
For N=C1N=C(NCCS(=O)(=O)O)/C(=C/C(O)CNC(=O)c2cc(Br)c[nH]2)N1 (mixture of isomers), the IC50 [4] was 37.9 µM.
Compound COC(=O)CC1CNC(=O)c2cc(Br)c(Br)n21 (racemic) has an EC50 (P388; read-out: ED50 (the source's name)) of 82 µM.
NC1NC[C@H](O)[C@@]2(N1)[C@H]1[C@H](CN3C(=O)c4cc(Br)cn4[C@H]4NC(N)N[C@@]413)[C@H](CNC(=O)c1cc(Br)c(Br)[nH]1)[C@@H]2Cl (stereo partly drawn) showed an IC50 (KB) of 26.7 µM, an IC50 (L1210) of 26.7 µM and an IC50 [5] of 26.1 µM.
With N=C1N=C(NCCS(=O)(=O)O)C(O)(/C=C/CNC(=O)c2cc(Br)c(Br)[nH]2)N1 (stereo not drawn) the IC50 (KB) was 20.7 µM and the IC50 (K562 [6]) was 20.7 µM.
In the case of NC1NC(/C=C/CNC(=O)c2cc(Br)c(Br)[nH]2)=C([n+]2cccc(O)c2)N1 (stereo not drawn), the IC50 (KB) is reported as 20.7 µM and the IC50 (K562 [6]) is reported as 20.7 µM.
With NC1=N/C(=C2\CCNC(=O)c3[nH]c(Br)cc32)C(=O)N1 the IC50 [7] was 3 nM and the IC50 (LoVo [8]) was 3 nM.
Compound N=C1N=C(NCCS(=O)(=O)O)/C(=C/C(O)CNC(=O)c2cc(Br)c(Br)[nH]2)N1 (mixture of isomers) [TAUROACIDIN A] has an IC50 [4] of 37.9 µM and an IC50 [9] of 44.6 µM.
In the case of Nc1nc([C@H]2[C@H](CNC(=O)c3cc(Br)c[nH]3)[C@@H](CNC(=O)c3cc(Br)c[nH]3)[C@@H]2c2c[nH]c(N)n2)c[nH]1 [SCEPTRIN], the IC50 [10] is reported as 270 nM and the IC50 (VIP peptides) is reported as 19.8 µM.
Work on NC1=NC(=O)/C(=C2\CCNC(=O)c3[nH]c(Br)cc32)N1 [HYMENIALDISINE] yielded an IC50 (Jurkat) of 4 µM, an IC50 [7] of 6 nM and an IC50 (LoVo [8]) of 6 nM. It also gave an IC50 (MONO-MAC-6) of 610 nM.
With Cn1cc(Br)cc1C(=O)NC[C@H]1CC2N=C(N)NC2[C@@H](c2c[nH]c(N)n2)[C@@H]1CNC(=O)c1cc(Br)cn1C (stereo partly drawn) the IC50 [11] was 18 µM.
Work on Cn1cccc1C(=O)NC[C@H]1CC2N=C(N)NC2[C@@H](c2c[nH]c(N)n2)[C@@H]1CNC(=O)c1cc(Br)c(Br)n1C (stereo partly drawn) yielded an IC50 [11] of 18 µM.
Compound NC1NC2c3c([nH]c(Br)c3Br)C(=O)N3C[C@H](Cl)[C@H](O)C23N1 (stereo partly drawn) has an IC50 (L1210) of 5.68 µM.
O=C1NC(=O)/C(=C/CCNC(=O)c2[nH]cc(Br)c2Br)N1 gave an IC50 (K562 [12]) of 6.1 µM and an IC50 (L02) of 12.3 µM.
Compound COC(=O)C(NCC(=O)c1cc(Br)c(Br)[nH]1)C(C)C (stereo not drawn) has an IC50 (HepG2) of 15.3 µM, an IC50 (MCF7 [13]) of 28.6 µM and an IC50 (Bel-7402) of 27.8 µM. It also gave an IC50 (LoVo [14]) of 960 nM, an IC50 (CNE) of 43.5 µM and an IC50 (HeLa) of 13.8 µM.
With Cn1c(Br)ccc1C(=O)NC[C@H]1CC2N=C(N)NC2[C@@H](c2c[nH]c(N)n2)[C@@H]1CNC(=O)c1cc(Br)c[nH]1 (stereo partly drawn) the IC50 [11] was 18 µM.
For NC1=NC(=O)C([C@@H]2[C@@H](CNC(=O)c3cc(Br)c[nH]3)[C@H](CNC(=O)c3cc(Br)c[nH]3)[C@H]2C2NC(N)=NC2=O)N1 (stereo partly drawn), the IC50 (A549 [15]) was 31.3 µM, the IC50 (SNU-638) was 7.92 µM and the IC50 (K562 [16]) was 12.9 µM. The IC50 (SK-HEP1) was 35.2 µM, the IC50 (HCT-116) was 9.93 µM and the IC50 (MDA-MB-231 [17]) was 32.8 µM.
